Source: patent publication US9884065B2, “Inhibiting activity of senescent cells using a glucocorticoid” (Buck Institute for Research on Aging, priority 2011, dated 2018)

Assays:
[1] = system: K-Ras induced lung tumors; experiment: K-Ras mediated lung tumorigenesis in INK-ATTAC:K-RasLA1 mice; format: in vivo, mouse; parameters: dose or concentration left out as unconfirmed; conditions: INK-ATTAC3:K-RasLA1 and INK-ATTAC5:K-RasLA1 mice, from three weeks of age; 21 days after treatment
From the text: Briefly, INK-ATTAC (p16^Ink4a apoptosis through targeted activation of caspase) transgenic mice have an FK506-binding protein (FKBP)-caspase 8 (Casp8) fusion polypeptide under the control of the p16^Ink4a promoter (see FIG. 10 providing a vector sequence for the transgene and FIG. 11 providing sequences for components of the transgene including the promoter sequence). In the presence of AP20187, a synthetic drug that induces dimerization of a membrane bound myristoylated FKBP-Casp8 fusion protein, senescent cells specifically expressing the FKBP-Casp8 fusion protein via the p16^Ink4a promoter undergo programmed cell death (apoptosis) (see, e.g., Baker, Nature, supra, FIG. 1 therein). Two founder lines (INK-ATTAC^3 and INK-ATTAC^5) were each bred with the K-rasLA1 tumor model. […]
Two INK-ATTAC:K-RasLA1 were produced (one for INK-ATTAC line 3 and one for line 5). […] Twenty one days after treatment, the mice were sacrificed and tumor multiplicity in lungs was measured. […] In addition, metastasis and overall survival will be monitored after tumor induction in the presence or absence of p16-positive cells.

[2] = system: SASP; experiment: Multiplex ELISA of conditioned media from irradiated IMR90 fibroblasts (50 cytokines and growth factors); format: cell-based, human; conditions: 10 μM apigenin immediately after irradiation, analyzed 6 days later; less than 2 fold not considered significant
Procedure: To determine whether or to what extent apigenin suppressed the entire SASP, multiplex ELISA was used to interrogate the relative secretion of 50 cytokines and growth factors. IMR90 fibroblasts were treated with 10 μM apigenin or DMSO immediately after irradiation and analyzed 6 days later. Cells were washed and incubated in serum-free media without apigenin to generate conditioned media. Conditioned media from […], apigenin- or DMSO-treated irradiated IMR90 cells and control (mock-irradiated, DMSO-treated) cells were analyzed by ELISA for various SASP factors (FIG. 19).

[3] = system: HCA2 human fibroblasts; conditions: 2.5 μM, 48 hours
Procedure: (§1) The initial drug screen was performed in a 96-well format using automated liquid handling with a Biomek FX (Beckman Coulter, CA). Senescent cells were plated 24 hours after X-irradiation at 7,500 cells per well in 96-well plates. Six days after plating the senescent cells, the pre-senescent cells were plated at 7,500 cells per well in 96-well plates. Twenty-four hours after pre-senescent plating, both pre-senescent and senescent cells were washed and incubated in low (0.2%) serum for 48 hours to arrest cell proliferation of the pre-senescent cells. Drugs from the Prestwick Chemical Library, which contains 1120 bio-available compounds in DMSO, were given to the cells at 2.5 μM in media containing 0.2% serum. Forty-eight hours after compound addition, the medium in each well was removed and frozen for assay by ELISA to quantitate the levels of IL-6. The cells, which remained in the wells after the medium was removed, were lysed and ATP levels were measured (ATPlite 1-step assay, Perkin Elmer, MA) to exclude compounds that lowered IL-6 through toxicity (cell death). Experimental wells in each plate were normalized to plate mean or same-plate DMSO controls for the ELISA and ATP assays, respectively.
To identify small molecules that may be potential SASP modulators, a screening strategy that entailed administering compounds to parallel 96-well plates containing human fibroblasts (strain HCA2) that were either quiescent or senescent was developed. The compounds tested comprised the Prestwick Chemical Library, a collection of approximately 1,120 Federal Drug Administration-approved drugs. The compounds were added to duplicate wells at a single concentration (2.5 μM). After 48 hours, the medium from each well was removed, and the cells were lysed. […] Cell lysates were assayed for ATP as a surrogate for cell number.

[4] = system: IL-6; experiment: Initial drug screen (Prestwick Chemical Library), IL-6 ELISA of medium; format: cell-based, human; conditions: 2.5 μM, 48 hours, HCA2 fibroblasts, 0.2% serum
Procedure: as §1, with “Drugs from the Prestwick Chemical Library, which contains 1120 bio-available compounds in DMSO, were given to the cells at 2.5 μM in media containing 0.2% serum.” left out
To identify small molecules that may be potential SASP modulators, a screening strategy that entailed administering compounds to parallel 96-well plates containing human fibroblasts (strain HCA2) that were either quiescent or senescent was developed. […] After 48 hours, the medium from each well was removed, and the cells were lysed. […] Cell lysates were assayed for ATP as a surrogate for cell number.

SMILES	tumor multiplicity in lungs (tumor numbers) [1]	secretion of SASP factors (fold difference over control) [2]	ATP levels [3]	IL-6 secretion (ELISA) [4]
CC[C@H](C(=O)N1CCCC[C@H]1C(=O)O[C@H](CCc1ccc(OC)c(OC)c1)c1cccc(OCC(=O)NCC(CNC(=O)COc2cccc([C@@H](CCc3ccc(OC)c(OC)c3)OC(=O)[C@@H]3CCCCN3C(=O)[C@@H](CC)c3cc(OC)c(OC)c(OC)c3)c2)CN(C)C)c1)c1cc(OC)c(OC)c(OC)c1 [AP20187]	significantly reduced			
O=c1cc(-c2ccc(O)cc2)oc2cc(O)cc(O)c12 [apigenin, 4′,5,7-trihydroxyflavone]		suppressed the secretion of several pro-inflammatory cytokines and chemokines, including, for example, TGFA, MCP3, LIF, IFNβ, IL-6, GROA, and IL-2	without altering ATP levels	capable of suppressing IL-6 secretion
